The nature of series [1]: Maximum absorption wavelength in chloroform (Cary 5000 spectrophotometer). In kind it is physicochemical. As to conditions: wavelength range 400 to 800 nm. As to the method:
In addition, the maximum absorption wavelength was obtained by dissolving 50 mg of each compound in 200 mL of chloroform, adding chloroform to 2 mL of this solution so as to be 200 mL, and measuring the absorbance of the solution in a wavelength range of 400 to 800 nm using Cary 5000 UV-Vis-NIR spectrophotometer (manufactured by Agilent Technologies, Inc.).

Series [2] can be described thus: Solubility in PGMEA at 25° C. (visual check of insoluble matters). Format: physicochemical. An excerpt:
The evaluation standard is as follows.

Each structure is given as a SMILES string.

Consider `O=C1C(=C2C=CC(=[N+](c3ccccc3)c3cccc4ccccc34)C=C2O)C([O-])=C1c1ccc(N(c2ccccc2)c2cccc3ccccc23)cc1O` [SQ-1], for which the Maximum absorption wavelength in series [1] was 670 nm. Further, the Solubility entry in series [2] was “A (solubility is 20 mg/L or less.)”.

`Cc1ccc(N(c2ccc(C3=C([O-])C(=C4C=CC(=[N+](c5ccc(C)cc5)c5cccc6ccccc56)C=C4O)C3=O)c(O)c2)c2cccc3ccccc23)cc1` [SQ-2] gave a Maximum absorption wavelength in series [1] of 675 nm. In series [2], the Solubility entry is “B (solubility is more than 20 mg/L and 25 mg or less.)”.

Take `Cc1cccc(N(c2ccc(C3=C([O-])C(=C4C=CC(=[N+](c5cccc(C)c5)c5cccc6ccccc56)C=C4O)C3=O)c(O)c2)c2cccc3ccccc23)c1` [SQ-3]: in series [1], the Maximum absorption wavelength was 675 nm. Further, in series [2], the Solubility entry was “B (solubility is more than 20 mg/L and 25 mg or less.)”.

`Cc1ccccc1N(c1ccc(C2=C([O-])C(=C3C=CC(=[N+](c4ccccc4C)c4cccc5ccccc45)C=C3O)C2=O)c(O)c1)c1cccc2ccccc12` [SQ-4] displayed a Maximum absorption wavelength in series [1] of 675 nm. For the same molecule, in series [2], the Solubility entry is “B (solubility is more than 20 mg/L and 25 mg or less.)”.

Turning to `Cc1ccc(N(c2ccc(C3=C([O-])C(=C4C=CC(=[N+](c5ccc(C)cc5C)c5cccc6ccccc56)C=C4O)C3=O)c(O)c2)c2cccc3ccccc23)c(C)c1` [SQ-7], in series [1], the Maximum absorption wavelength turned out to be 680 nm. For the same molecule, the Solubility result in series [2] was “C (solubility is more than 25 mg/L and 30 mg or less.)”.

With `O=C1C(=C2C=CC(=[N+](c3ccc(Cl)cc3)c3cccc4ccccc34)C=C2O)C([O-])=C1c1ccc(N(c2ccc(Cl)cc2)c2cccc3ccccc23)cc1O` [SQ-12], the Maximum absorption wavelength in series [1] came out at 665 nm. Besides, in series [2], the Solubility entry is on record as “A (solubility is 20 mg/L or less.)”.

Take `CCc1ccc(N(c2ccc(C3=C([O-])C(=C4C=CC(=[N+](c5ccc(CC)cc5)c5cccc6ccccc56)C=C4O)C3=O)c(O)c2)c2cccc3ccccc23)cc1` [SQ-13]: the Maximum absorption wavelength in series [1] was found to be 675 nm. Moreover, the Solubility entry in series [2] is “B (solubility is more than 20 mg/L and 25 mg or less.)”.

In series [1], `CC(C)(C)c1ccc(N(c2ccc(C3=C([O-])C(=C4C=CC(=[N+](c5ccc(C(C)(C)C)cc5)c5cccc6ccccc56)C=C4O)C3=O)c(O)c2)c2cccc3ccccc23)cc1` [SQ-14] displayed a Maximum absorption wavelength of 670 nm. Further, the Solubility result in series [2] is “C (solubility is more than 25 mg/L and 30 mg or less.)”.

`CCOc1ccc(N(c2ccc(C3=C([O-])C(=C4C=CC(=[N+](c5ccc(OCC)cc5)c5cccc6ccccc56)C=C4O)C3=O)c(O)c2)c2cccc3ccccc23)cc1` [SQ-15] registered a Maximum absorption wavelength in series [1] of 680 nm. For the same molecule, the Solubility result in series [2] was “B (solubility is more than 20 mg/L and 25 mg or less.)”.

For `N#Cc1ccc(N(c2ccc(C3=C([O-])C(=C4C=CC(=[N+](c5ccc(C#N)cc5)c5cccc6ccccc56)C=C4O)C3=O)c(O)c2)c2cccc3ccccc23)cc1` [SQ-16], in series [1], the Maximum absorption wavelength was determined as 660 nm. For the same molecule, the Solubility result in series [2] is given as “A (solubility is 20 mg/L or less.)”.

In series [1], `CSc1ccc(N(c2ccc(C3=C([O-])C(=C4C=CC(=[N+](c5ccc(SC)cc5)c5cccc6ccccc56)C=C4O)C3=O)c(O)c2)c2cccc3ccccc23)cc1` [SQ-17] yielded a Maximum absorption wavelength of 675 nm. The Solubility result in series [2] is reported as “A (solubility is 20 mg/L or less.)”.

Consider `CN(C)c1ccc(N(c2ccc(C3=C([O-])C(=C4C=CC(=[N+](c5ccc(N(C)C)cc5)c5cccc6ccccc56)C=C4O)C3=O)c(O)c2)c2cccc3ccccc23)cc1` [SQ-18], for which the Maximum absorption wavelength in series [1] was 685 nm. The Solubility result in series [2] is listed as “A (solubility is 20 mg/L or less.)”.

In the case of `CC(=O)Nc1ccc(N(c2ccc(C3=C([O-])C(=C4C=CC(=[N+](c5ccc(NC(C)=O)cc5)c5cccc6ccccc56)C=C4O)C3=O)c(O)c2)c2cccc3ccccc23)cc1` [SQ-19], the Maximum absorption wavelength in series [1] is on record as 670 nm. In series [2], the Solubility result is “A (solubility is 20 mg/L or less.)”.

Regarding `O=C1C(=C2C=CC(=[N+](c3ccco3)c3cccc4ccccc34)C=C2O)C([O-])=C1c1ccc(N(c2ccco2)c2cccc3ccccc23)cc1O` [SQ-25], the Maximum absorption wavelength in series [1] turned out to be 665 nm. For the same molecule, in series [2], the Solubility result is “B (solubility is more than 20 mg/L and 25 mg or less.)”.

Consider `O=C1C(=C2C=CC(=[N+](c3cccc4ccccc34)c3cccc4ccccc34)C=C2O)C([O-])=C1c1ccc(N(c2cccc3ccccc23)c2cccc3ccccc23)cc1O` [SQ-29], for which the Maximum absorption wavelength in series [1] was found to be 680 nm. The Solubility result in series [2] is recorded as “A (solubility is 20 mg/L or less.)”.

`O=C1C(=C2C=CC(=[N+](c3ccccc3)c3cc(C(F)(F)F)cc(C(F)(F)F)c3)C=C2O)C([O-])=C1c1ccc(N(c2ccccc2)c2cc(C(F)(F)F)cc(C(F)(F)F)c2)cc1O` [SQ-67] displayed a Maximum absorption wavelength in series [1] of 675 nm. For the same molecule, the Solubility entry in series [2] was “C (solubility is more than 25 mg/L and 30 mg or less.)”.

Turning to `O=C1C(=C2C(O)=CC(=[N+](c3ccc(Cl)cc3)c3cccc4ccccc34)C=C2O)C([O-])=C1c1c(O)cc(N(c2ccc(Cl)cc2)c2cccc3ccccc23)cc1O` [SQ-74], the Maximum absorption wavelength in series [1] is listed as 665 nm. Moreover, the Solubility result in series [2] is “A (solubility is 20 mg/L or less.)”.

With `O=C1C(=C2C(O)=CC(=[N+](c3cccc4ccccc34)c3cccc4ccccc34)C=C2O)C([O-])=C1c1c(O)cc(N(c2cccc3ccccc23)c2cccc3ccccc23)cc1O` [SQ-77], the Maximum absorption wavelength in series [1] is reported as 670 nm. In series [2], the Solubility result was “A (solubility is 20 mg/L or less.)”.

`O=C1C(=C2C(O)=CC(=[N+](c3ccccc3)c3ccc4ccccc4c3)C=C2O)C([O-])=C1c1c(O)cc(N(c2ccccc2)c2ccc3ccccc3c2)cc1O` [SQ-96] returned a Maximum absorption wavelength in series [1] of 690 nm. Further, in series [2], the Solubility entry is listed as “A (solubility is 20 mg/L or less.)”.

`CCOC1=CC(=[N+](c2ccccc2)c2cccc3ccccc23)C=CC1=C1C(=O)C(c2ccc(N(c3ccccc3)c3cccc4ccccc34)cc2OCC)=C1[O-]` [SQ-101]: the Maximum absorption wavelength in series [1] was 690 nm. In addition, the Solubility result in series [2] is “A (solubility is 20 mg/L or less.)”.

`O=C1C(=C2C(O)=CC(=[N+](c3ccccc3)c3cccc4ccccc34)c3ccccc32)C([O-])=C1c1c(O)cc(N(c2ccccc2)c2cccc3ccccc23)c2ccccc12` [SQ-104]: the Maximum absorption wavelength in series [1] amounted to 695 nm. The Solubility result in series [2] was “A (solubility is 20 mg/L or less.)”.

In series [1], `O=C1C(=C2C=CC(=[N+](c3ccccc3-c3ccccc3)c3ccccc3[N+](=O)[O-])C=C2O)C([O-])=C1c1ccc(N(c2ccccc2-c2ccccc2)c2ccccc2[N+](=O)[O-])cc1O` [SQ-108] gave a Maximum absorption wavelength of 685 nm. In series [2], the Solubility result is on record as “A (solubility is 20 mg/L or less.)”.

As to `O=C1C(=C2C=CC(=[N+](c3ccccc3-c3ccccc3)c3ccccc3-c3ccccc3)C=C2O)C([O-])=C1c1ccc(N(c2ccccc2-c2ccccc2)c2ccccc2-c2ccccc2)cc1O` [SQ-110], the Maximum absorption wavelength in series [1] is on record as 675 nm. Further, the Solubility result in series [2] is reported as “A (solubility is 20 mg/L or less.)”.

`CCCCN(CCCC)c1cc(O)c(C2=C([O-])C(=C3C(O)=CC(=[N+](CCCC)CCCC)C=C3O)C2=O)c(O)c1` [SQ-R1, reference compound]: in series [1], the Maximum absorption wavelength turned out to be 655 nm. The solubility at 15 min in series [2] (organic solvent or mixture, thermodynamic from solid) is above 30 µg/mL.

For the origin of these results see patent US20210130617A1, “COLORING COMPOSITION, FILM, COLOR FILTER, METHOD FOR MANUFACTURING COLOR FILTER, SOLID-STATE IMAGING ELEMENT, AND IMAGE DISPLAY DEVICE” (FUJIFILM Corporation, priority 2018, published 2021).
